For the assay, the target named is CDK-2 (Homo sapiens, UniProt P24941). As to the kind of experiment: CDK-2 inhibition (Table 1; fluorescence polarization displacement assay). The assay is classed as binding. The conditions noted are these: inhibitory effectiveness toward CDK-2. In short, it runs like this:
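Ki was measured by fluorescence polarization displacement of 50 nM BMS-Alexa Fluor647 tracer from CDK-2 ([…]) or CDK-2/cyclin A ([…]). Buffer was 10 mM Hepes pH 7.5, 150 mM NaCl, 1 mM DTT, with 15 min incubation at room temperature and read at ex 580/em 680 nm. Ki came from nonlinear regression of the displacement curves.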

pIC50: −log10 of the molar value.

Usually pIC50 stands for −log10 of the IC50, conventionally taken in molar units. A low value points to a large IC50. `COc1ccc(NC(=O)c2ccc(C(=O)Nc3ccc(C(N)=O)cc3)s2)c(C)c1` [Compound 176]: the pIC50 was not above 4.40. The value for `COc1ccc(NC(=O)c2ccc(C(=O)Nc3ccc(Cn4ccnc4)cc3)s2)c(C)c1` [Compound 177] was not above 4.40. Under `COc1ccc(NC(=O)c2ccc(C(=O)Nc3ccc(-c4nnn[nH]4)cc3)s2)c(C)c1` [Compound 178] stands not above 4.40. Take `COc1ccc(NC(=O)c2ccc(C(=O)Nc3ccc(-c4ncn(C)n4)cc3)s2)c(C)c1` [Compound 179]: the pIC50 is not above 4.40. With `COc1ccc(NC(=O)c2ccc(C(=O)Nc3ccc(-n4cncn4)cc3F)s2)c(C)c1` [Compound 180], the pIC50 was not above 4.40.

Molecule `COc1ccc(C(=O)Nc2ccc(C(=O)Nc3ccc(-n4cncn4)cc3)o2)cc1` [Compound 181] had a pIC50 not above 4.40. The molecule `COc1ccc(C(=O)Nc2ccc(C(=O)N3CCC(Oc4cnccn4)CC3)o2)cc1` [Compound 182] had a pIC50 not above 4.40. Under `O=C(Nc1ccc(C(=O)Nc2ccc(-n3cncn3)cc2)o1)c1ccccc1` [Compound 183] stands not above 4.40; under `Cc1ccccc1C(=O)Nc1ccc(C(=O)Nc2ccc(-n3cncn3)cc2)o1` [Compound 184], not above 4.40. The value for `O=C(Nc1ccc(C(=O)Nc2ccc(-n3cncn3)cc2)o1)c1ccncc1` [Compound 185] was not above 4.40.

`COc1ccc(C(=O)Nc2ccc(C(=O)Nc3ccc(-n4cncn4)cc3)o2)c(C)c1` [Compound 186] showed a pIC50 not above 4.40. The value for `O=C(Nc1ccc(-n2cncn2)cc1)c1ccc(NC(=O)C2CCCCC2)o1` [Compound 187] was not above 4.40; that for `COc1ccc(C(=O)Nc2ccc(C(=O)N3CCC(c4ccccn4)C3)s2)c(C)c1` (centres unmarked) [Compound 188] was not above 4.40; that for `COc1ccc(C(=O)Nc2ccc(C(=O)N3CCC(c4ccncc4)C3)s2)c(C)c1` (centres unmarked) [Compound 189] was not above 4.40. Under `COc1ccc(C(=O)Nc2ccc(C(=O)N3CCC(c4ccccn4)C3)o2)c(C)c1` (centres unmarked) [Compound 190] stands not above 4.40. The value for `COc1ccc(C(=O)Nc2ccc(C(=O)N3CCC(c4ccncc4)C3)o2)c(C)c1` (centres unmarked) [Compound 191] was not above 4.40; that for `COc1ccc(C(=O)Nc2ccc(C(=O)N3CCC(Oc4cnccn4)CC3)o2)c(C)c1` [Compound 192] was not above 4.40. In turn, `COc1ccc(C(=O)Nc2ccc(C(=O)Nc3ccc(-n4ccnc4)cc3)o2)c(C)c1` [Compound 193] gave a pIC50 not above 4.40. The value for `O=C(Nc1ccc(C(=O)Nc2ccc(-n3cncn3)cc2)s1)c1ccncc1` [Compound 194] was not above 4.40; that for `Cn1nc(-c2cccs2)cc1NC(=O)c1ccc(C(=O)Nc2ccc(-n3cncn3)cc2)s1` [Compound 195] was not above 4.40. With `Cn1nc(-c2ccc(Cl)cc2)cc1NC(=O)c1ccc(C(=O)Nc2ccc(-n3cncn3)cc2)s1` [Compound 196], the pIC50 is not above 4.40. In turn, `O=C(Nc1ccc(-n2cncn2)cc1)c1ccc(C(=O)Nc2cc(-c3ccco3)n[nH]2)s1` [Compound 197] had a pIC50 not above 4.40. With `COc1ccc(NCc2ccc(C(=O)Nc3ccc(-n4cncn4)cc3)o2)c(C)c1` [Compound 198], the pIC50 is not above 4.40. Under `O=C(Nc1ccc(-n2cncn2)c(F)c1)c1ccc(C(=O)Nc2ccccc2Oc2ccccc2)s1` [Compound 199] stands not above 4.40. The value for `O=C(Nc1ccc(-n2cncn2)c(F)c1)c1ccc(C(=O)Nc2ccccc2OCc2ccccc2)s1` [Compound 200] was not above 4.40; that for `CCOc1ccccc1NC(=O)c1ccc(C(=O)Nc2ccc(-n3cncn3)c(F)c2)s1` [Compound 201] was not above 4.40; that for `O=C(Nc1ccc(-n2cncn2)c(F)c1)c1ccc(C(=O)Nc2ccccc2OCc2ccncc2)s1` [Compound 202] was not above 4.40. Under `O=C(Nc1ccc(-n2cncn2)c(F)c1)c1ccc(C(=O)Nc2ccccc2OC2CCCCC2)s1` [Compound 203] stands not above 4.40. Molecule `O=C(Nc1ccc(-n2cncn2)c(F)c1)c1ccc(C(=O)Nc2ccccc2COc2ccccc2)s1` [Compound 204] showed a pIC50 not above 4.40.

Molecule `O=C(Nc1ccc(-n2cncn2)c(F)c1)c1ccc(C(=O)Nc2ccccc2Oc2cccnc2)s1` [Compound 205] gave a pIC50 not above 4.40. The value for `COc1ccccc1NC(=O)c1ccc(C(=O)Nc2ccc(-n3cncn3)c(F)c2)s1` [Compound 206] was not above 4.40; that for `O=C(Nc1ccc(-n2cncn2)c(F)c1)c1ccc(C(=O)Nc2ccccc2N2CCOCC2)s1` [Compound 207] was not above 4.40. The value for `O=C(Nc1ccc(-n2cncn2)c(F)c1)c1ccc(C(=O)Nc2ccccc2-n2cccn2)s1` [Compound 208] was not above 4.40; that for `CN1CCN(c2ccccc2NC(=O)c2ccc(C(=O)Nc3ccc(-n4cncn4)c(F)c3)s2)CC1` [Compound 209] was not above 4.40; that for `CN1CCC(N(C)C(=O)c2ccc(C(=O)Nc3ccc(-n4cncn4)c(F)c3)o2)CC1` [Compound 210] was not above 4.40.

Molecule `O=C(Nc1ccc(-n2cncn2)c(F)c1)c1ccc(C(=O)N2CCOCC2)o1` [Compound 211] had a pIC50 not above 4.40. The value for `CN(C)CCNC(=O)c1ccc(C(=O)Nc2ccc(-n3cncn3)c(F)c2)o1` [Compound 212] was not above 4.40; that for `CN(C(=O)c1ccc(C(=O)Nc2ccc(-n3cncn3)c(F)c2)o1)C1CCCCC1` [Compound 213] was not above 4.40. The value for `CN1CCC(NC(=O)c2ccc(C(=O)Nc3ccc(-n4cncn4)c(F)c3)o2)CC1` [Compound 214] was not above 4.40; that for `CNC(=O)c1ccc(C(=O)Nc2ccc(-n3cncn3)c(F)c2)o1` [Compound 215] was not above 4.40; that for `CN(C)C(=O)c1ccc(C(=O)Nc2ccc(-n3cncn3)c(F)c2)o1` [Compound 216] was not above 4.40.
